Measured values published in patent publication US20230066156A1, “6-SUBSTITUTED, 22-CYANO HYODEOXYCHOLANIC ANALOGUES AND USES THEREOF” (PRECISION BIO-THERAPEUTICS S.R.L., priority 2019, published 2023).

Target: T1, FXR (Homo sapiens, UniProt Q96RI1)
T1 construct: expressed in transfected cells; host or cells: HepG2
T1 sequence (Q96RI1 1-486): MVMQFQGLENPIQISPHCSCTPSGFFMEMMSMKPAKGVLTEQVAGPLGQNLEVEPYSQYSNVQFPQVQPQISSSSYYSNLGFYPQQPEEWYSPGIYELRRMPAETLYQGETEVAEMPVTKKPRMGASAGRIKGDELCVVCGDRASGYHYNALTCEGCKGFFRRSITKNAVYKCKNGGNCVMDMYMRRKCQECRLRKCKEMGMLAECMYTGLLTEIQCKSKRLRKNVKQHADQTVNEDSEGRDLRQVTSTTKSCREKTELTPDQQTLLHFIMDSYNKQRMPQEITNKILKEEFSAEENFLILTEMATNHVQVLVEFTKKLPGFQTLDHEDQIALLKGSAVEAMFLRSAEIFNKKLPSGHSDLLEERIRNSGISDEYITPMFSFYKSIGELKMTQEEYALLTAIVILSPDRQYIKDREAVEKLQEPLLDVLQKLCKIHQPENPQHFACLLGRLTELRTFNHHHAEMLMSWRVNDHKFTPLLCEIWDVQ
T1 sequence (P19793 1-462 partner): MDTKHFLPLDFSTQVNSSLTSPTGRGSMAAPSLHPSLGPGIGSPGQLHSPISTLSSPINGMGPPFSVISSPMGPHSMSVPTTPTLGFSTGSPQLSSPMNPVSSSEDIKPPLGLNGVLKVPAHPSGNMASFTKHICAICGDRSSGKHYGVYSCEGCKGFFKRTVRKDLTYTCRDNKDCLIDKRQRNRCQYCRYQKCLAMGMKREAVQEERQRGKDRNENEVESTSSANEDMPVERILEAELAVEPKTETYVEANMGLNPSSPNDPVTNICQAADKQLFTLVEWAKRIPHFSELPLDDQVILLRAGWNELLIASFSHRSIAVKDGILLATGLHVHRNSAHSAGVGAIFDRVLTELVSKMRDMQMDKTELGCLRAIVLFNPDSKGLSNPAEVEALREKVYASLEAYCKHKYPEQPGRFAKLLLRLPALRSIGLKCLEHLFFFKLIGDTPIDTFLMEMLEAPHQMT
Test: FXR mediated transactivation, IR1 (hsp27)-luciferase reporter in transfected HepG2 cells
Assay type: cell-based
Settings: compound at 10 μM, HepG2, vs maximal transactivation by CDCA 10 μM, triplicate
Procedure: Selected compounds were tested in vitro on FXR and TGR5/GPBAR1 receptors (Table 1) using a whole cell model transfected with a reporter genes. The activity was evaluated in comparison with chenodeoxycholic acid (CDCA) and TLCA.
CDCA is a primary bile acid that functions as an endogenous ligand for FXR, while TLCA is a physiological ligand for TGR5/GPBAR1. In this assay, HepG2 cells (a liver-derived cell line) were cultured at 37° C. in minimum essential medium with Earl's salts containing 10% fetal bovine serum (FBS), 1% L-glutamine, and 1% penicillin/streptomycin. HEK-293T cells were cultured at 37° C. in D-MEM containing 10% fetal bovine serum (FBS), 1% L-glutamine, and 1% penicillin/streptomycin. The transfection experiments were performed using Fugene HD according to manufactured specifications. Cells were plated in a 24-well plate at 5×10^4 cells/well. For FXR mediated transactivation, HepG2 cells were transfected with 100 ng of pSG5-FXR, 100 ng of pSG5-RXR, 100 ng of pGL4.70 a vector encoding the human Renilla gene and 250 ng of the reporter vector p(hsp27)-TK-LUC containing the FXR response element IR1 cloned from the promoter of heat shock protein 27 (hsp27).
The data on the activity of certain compounds of the invention on TGR5/GPBAR1 are described in the following table 1. In this table, activities for compounds of the invention on GPBAR1 was compared to those of the reference compound TLCA. For % of activity, each compound was tested at the concentration of 10 microM and transactivation activity of TLCA on CRE (i.e. TGR5/GPBAR1) was considered equal to 100%. For selectivity toward FXR, activity was assessed in HepG2 cells transfected with an FXR responsive element (IR1) cloned upstream to the luciferase gene. For calculation of efficacy data, maximal transactivation of IR1 caused by each compound (10 μM) was compared to maximal transactivation caused by CDCA (10 μM). GPBAR1/FXR selectivity calculated as ratio between % of activity toward GPBAR1 and % of activity toward FXR. Each experiment was conducted in triplicate.

SMILES: CC[C@]1(O)C[C@H]2[C@@H]3CC[C@H]([C@H](C)CC#N)[C@@]3(C)CC[C@@H]2[C@@]2(C)CC[C@@H](O)C[C@@H]12 [PBT110B, 3α,6α-dihydroxy-6β-ethyl-24-nor-5β-cholan-23-nitrile]
- FXR (% of activity in comparison to 10 μM CDCA): 12.3 ± 0.47%
